Here are results for 19 molecules from ChEMBL document CHEMBL5149986, “Spliceostatins and Derivatives: Chemical Syntheses and Biological Properties of Potent Splicing Inhibitors” (J Nat Prod, 2021).

Molecules are shown by their SMILES. A value given as a limit tells only on which side of the number the result lay.

Series [1] is described as follows: Inhibition of pre-mRNA splicing in human HeLa nuclear extract in presence of ATP. The series is classed as cell-free.
The subject of a further series is HeLa. Nature of the series: Potency index, ratio of test compound IC50 to Spliceostatin A IC50 for inhibition of pre-mRNA splicing in human HeLa nuclear extract in presence of ATP.
Another series has as its system MES-SA/Dx5. The series can be described thus: Cytotoxicity against human MES-SA/Dx5 cells assessed as inhibition in cell growth. The series is classed as functional, cell-based.
A short description of series [2]: Cytotoxicity against HEK293T cells assessed as inhibition in cell growth. The format is toxicity, cell-based, HEK-293T. Conditions: human.
A further series has as its system MES-SA. Nature of the series: Cytotoxicity against human MES-SA cells assessed as inhibition in cell growth. The format is functional, cell-based.
The test system of the next series is HCT-116. The series can be described thus: Cytotoxicity against human HCT-116 cells assessed as inhibition in cell growth. The series is classed as functional, cell-based.
For the next series, the system named is L1210. The series can be described thus: Cytotoxicity against mouse L1210 cells assessed as inhibition in cell growth. The format is functional, cell-based.
The subject of a further series is HCT-116/VM46. Nature of the series: Cytotoxicity against human HCT116/VM46 cells assessed as inhibition in cell growth. The format is functional, cell-based.
The nature of series [3]: Cytotoxicity against human Jurkat-TAg cells assessed as cell growth inhibition measured after 48 hrs. The series is classed as functional, cell-based.
The next series concerns MCF7. Nature of the series: Cytotoxicity against human MCF7 cells incubated for 7 to 10 days by MTS assay. Conditions: time 7-10 day. The format is functional.

As to `CO[C@]1(C)C[C@]2(CO2)[C@@H](O)[C@@H](/C=C/C(C)=C/C[C@@H]2O[C@H](C)[C@H](NC(=O)/C=C\[C@H](C)OC(C)=O)C[C@@H]2C)O1`, the IC50 – broadly, the point on the concentration scale where inhibition reaches its midpoint – in series [1] stood at 1500 nM.
`CC(=O)O[C@@H](C)/C=C\C(=O)N[C@@H]1C[C@H](C)[C@H](C/C=C(C)/C=C/[C@H]2OC3(CC3)C[C@@]3(CO3)[C@@H]2O)O[C@@H]1C`: the 50% inhibitory concentration (IC50) in series [1] was 20 nM. The Ratio IC50 in the series on HeLa was determined as 2.
For `COC(=O)C[C@@H]1C[C@@]2(CO2)[C@H](O)[C@@H](/C=C/C(C)=C/C[C@@H]2O[C@H](C)[C@H](NC(=O)/C=C\[C@H](C)OC(C)=O)C[C@@H]2C)O1`, the IC50 with MES-SA/Dx5 worked out at 3.6 nM; in series [2], 0.36 nM; in series [1] it was 400 nM; in the series on MES-SA it was 0.32 nM.
In the case of `CC(/C=C/[C@H]1OC(C)(C)C[C@@]2(CO2)[C@@H]1O)=C\C[C@@H]1O[C@H](C)[C@H](NC(=O)/C=C\[C@H](C)OC(=O)N2CCOCC2)C[C@@H]1C`, the IC50 in the series on HCT-116 came out at 0.49 nM; in the series on L1210, 7.8 nM; in the series with HCT-116/VM46, 0.55 nM.
With `CC(=O)O[C@@H](C)/C=C\C(=O)N[C@@H]1C[C@H](C)[C@H](C/C=C(C)/C=C/[C@H]2O[C@](C)(O)C[C@]3(CO3)[C@H]2O)O[C@@H]1C`, in series [1], the half-maximal inhibitory concentration (IC50) turned out to be 35000 nM.
In the case of `CC(=O)O[C@@H](C)/C=C\C(=O)N[C@@H]1C[C@H](C)[C@H](C/C=C(C)/C=C/[C@H]2O[C@](C)(O)CC3(CC3)[C@@H]2O)O[C@@H]1C`, the IC50 in [3] was above 4000 nM.
As to `CC(=O)O[C@@H](C)/C=C\C(=O)N[C@@H]1C[C@H](C)[C@H](C/C=C(C)/C=C/[C@H]2O[C@@H](C)C[C@@]3(CO3)[C@@H]2O)O[C@@H]1C`, the IC50 in [3] was found to be 1.6 nM.
Turning to `CC(=O)N[C@@H]1C[C@H](C)[C@H](C/C=C(C)/C=C/[C@H]2O[C@](C)(O)C[C@@]3(CO3)[C@@H]2O)O[C@@H]1C`, the IC50 in series [3] was 1700 nM.
`CC(=O)O[C@@H](C)/C=C\C(=O)N[C@@H]1C[C@H](C)[C@H](C/C=C(C)/C=C/[C@H]2O[C@](C)(O)C[C@@]3(CO3)[C@@H]2O)O[C@@H]1C`: the GI50 (as a rule, the concentration at which growth is held to half of that of the control) with MCF7 was determined as 1.1 nM. The figures for the IC50 in series [1] and in [3] were 50 nM and 2 nM, respectively.
For `CC(=O)O[C@@H](C)/C=C\C(=O)N[C@H]1C[C@H](C)[C@H](C/C=C(C)/C=C/[C@H]2O[C@](C)(O)C[C@]3(CO3)[C@H]2O)O[C@@H]1C`, the IC50 in [1] turned out to be 20000 nM.
`CO[C@]1(C)C[C@@]2(CO2)[C@H](O)[C@@H](/C=C/C(C)=C/C[C@@H]2O[C@H](C)[C@H](NC(=O)/C=C\[C@H](C)OC(C)=O)C[C@@H]2C)O1`: the 50% inhibitory concentration (IC50) in series [1] is 10 nM.
`CC(/C=C/[C@H]1OC(C)(C)C[C@@]2(CO2)[C@@H]1O)=C\C[C@@H]1O[C@H](C)[C@H](NC(=O)/C=C\[C@H](C)OC(=O)N2CCCCC2)C[C@@H]1C`: the concentration for half-maximal inhibition (IC50) with HCT-116 amounted to 0.68 nM; with L1210, 0.6 nM; in the series with HCT-116/VM46, 0.59 nM.
For `CC(/C=C/[C@H]1OC(C)(C)C[C@@]2(CO2)[C@@H]1O)=C\C[C@@H]1O[C@H](C)[C@H](NC(=O)/C=C\[C@H](C)OC(=O)N2CCSCC2)C[C@@H]1C`, the results for the IC50 in the series on HCT-116, in the series with L1210 and with HCT-116/VM46 were 0.48 nM, 0.51 nM and 0.52 nM, respectively.
On to `CC(=O)O[C@@H](C)/C=C\C(=O)N[C@H]1C[C@H](C)[C@H](C/C=C(C)/C=C/[C@H]2O[C@](C)(O)C[C@@]3(CO3)[C@@H]2O)O[C@@H]1C`, for which the IC50 in series [1] came out at 1000 nM.
Turning to `CC(/C=C/[C@H]1OC(C)(C)C[C@@]2(CO2)[C@@H]1O)=C\C[C@@H]1O[C@H](C)[C@H](NC(=O)/C=C\[C@H](C)O)C[C@@H]1C`, the results for the IC50 with HCT-116, with L1210 and in the series with HCT-116/VM46 were 9.7 nM, 0.54 nM and 7.4 nM, respectively.
The molecule `CC(=O)O[C@@H](C)/C=C\C(=O)N[C@@H]1C[C@H](C)[C@H](C/C=C(C)/C=C/[C@H]2OC(C)(C)C[C@@]3(CO3)[C@@H]2O)O[C@@H]1C` displayed a GI50 in the series on MCF7 of 0.0102 nM. The values for the 50% inhibitory concentration (IC50) with HCT-116, in the series on L1210 and in the series on HCT-116/VM46 were 0.56 nM, 0.44 nM and 0.51 nM, respectively.
Regarding `CO[C@]1(C)C[C@@]2(CO2)[C@H](O)[C@@H](/C=C/C(C)=C/C[C@@H]2O[C@H](C)[C@@H](NC(=O)/C=C\[C@H](C)OC(C)=O)C[C@@H]2C)O1`, in series [1], the IC50 amounted to 1000 nM.
Take `CC(/C=C/[C@H]1O[C@H](CC(=O)OC(C)(C)C)C[C@@]2(CO2)[C@@H]1O)=C\C[C@@H]1O[C@H](C)[C@H](NC(=O)/C=C\[C@H](C)OC(=O)C(C)C)C[C@@H]1C`: the results for the IC50 (in the series with MES-SA/Dx5; in [2]; in the series on MES-SA) were 4.83 nM, 0.099 nM and 11.3 nM, respectively.
Taken in the same sequence, the figures for `CC(/C=C/[C@H]1O[C@H](CC(=O)NCCC(=O)O)C[C@@]2(CO2)[C@@H]1O)=C\C[C@@H]1O[C@H](C)[C@H](NC(=O)/C=C\[C@H](C)OC(=O)C(C)C)C[C@@H]1C` were 74 nM, 1.44 nM and 4.58 nM.
